We go through twelve compounds from patent US7196110B2, “N-substituted tricyclic 3-aminopyrazoles as inhibitors for the treatment of cell proliferative disorders” (Janssen Phamaceutica N.V., priority 2002, dated 2007).

Read-outs that look alike come from different tables or passages of the source.

For assay [1], the system named is human coronary artery smooth muscle cells (HCASMC), PDGF-BB induced. As to the kind of experiment: Anti-cell proliferation in normal cells in the presence of PDGF stimulation (14C-thymidine incorporation). The class given is cell-based. Conditions: read-out: IC50 on cell proliferation, HCASMC (PDGF-BB). The procedure:
The effect of compounds of the invention on cell proliferation in normal human primary cells, in particular, cryopreserved human coronary artery smooth muscle cells (HCASMC), in the presence of PDGF stimulation was tested based on incorporation of ^14C-thymidine into DNA of cells.
The following materials were purchased from their respective sources: Recombinant human PDGF beta homodimer, rhPDGF-BB (herein after referred as “PDGF-BB”) purchased from R&D System (Minneapolis, Minn., Cat. No 220-BB); Cryopreserved human coronary artery smooth muscle cells (HCASMC), tissue culture medium for HCASMC, and smooth muscle growth supplement (SMGS) purchased from Cascade Biologics (Portland, Oreg., HCASMC Cat. No: C-017-5C; Medium 231 Cat. No: M-231-500; and SMGS Cat. No: S-007-25); 96-well CytoStar tissue culture treated scintillating microplates purchased from Amersham (Piscataway, N.J., Cat. No: RPNQ0160); Methyl ^14C-thymidine at 56 mCi/mmol (250 μCi/2.5 mL) purchased from NEN (Cat. No.: NEC568); DMSO from Sigma (St. Louis, Mo., Cat. No: D-5879); Sterile reagent reservoirs from Costar (VWR International, Inc., West Chester, Pa., Cat. No: 4870); Dulbecco's PBS from Gibco (Cat. No: 14190-136); Backing tape white plate cover for bottom of CytoStar plate from Packard (Cat. No: 6005199)
HCASMC were seeded at approx. 4000 cells/well in a volume of 100 μl of complete Medium 231 with SMGS. Cells were grown for 48 hrs until they reach 80% confluence. They were then quiesced in SMGS-free Medium 231 for 24 hrs. Cell media were replenished with SMGS-free Medium 231 containing PDGF-BB at 50 ng/mL in a total volume of 100 μl/well; and 1 μl of test compounds in serially diluted concentrations in 100% DMSO was added to each well. For the maximum growth control wells, only 1 μl of 100% DMSO was added; for minimum growth (blank) wells, 1 μl of 10 mM cycloheximide was added to each well. After 24 hours incubation, 20 μl of ^14C-thymidine mix was added to each well and the ^14C-thymidine mix was made according the following regimen:
Cells were incubated for an additional 24 hrs in media containing test compounds, PDGF-BB and ^14C-thymidine. Then, the reaction mixture was discarded and the plate was washed 3 times each with 200 μl PBS. Subsequently, each well on the plate was filled with 200 μl of PBS. The top of the plate was sealed with transparent plate sealer and white plate backing sealers were applied to the bottom of plates. The retained ^14C inside each well was measured using a Packard TopCount.
The amount of ^14C retained in a well correlates to the proliferation of cells inside the well. […] In order to test the potency of inhibition of the present compound, IC50 of an individual compound on the inhibition of PDGF-BB induced HCASMC proliferation was measured using the above procedure. As used herein, said IC50 refers to the concentration of the test compound at which the amount of PDGF-BB induced HCASMC proliferation is reduced by one-half as compared to the maximum growth control wells without the compound.
Background: Dividing cells build labelled thymidine or BrdU into new DNA.

Assay [2] deals with LoVo (colon). As to the kind of experiment: Anti-cell proliferation in tumor cells (14C-thymidine incorporation), LoVo. The class given is cell-based. Conditions: Homo sapiens, read-out: IC50 on cell proliferation, LoVo. As for the experimental part:
The effect of compounds of the invention on cell proliferation in various tumor cells was tested based on incorporation of ^14C-thymidine into DNA of cells.
Similar to those described above in 3a, except that different cells, cell growth medium, and growth supplements were used. Human tumor cell lines derived from various human tissue origins (LoVo from colon, H460 from lung, T47D from breast, PC3 from prostate, A375 from melanoma, AsPC1 from pancreas) were obtained from the American Type Culture Collection (ATCC) and cultured under specified conditions required for each cell type, as provided by ATCC. Complete medium was obtained from Cellgro: Iscove's medium with 10% Fetal Bovine Serium (FBS) (Mediatech, Inc., Herndon, Va. 20171, Cat. No. 10-016-CV).
Tumor cells were seeded at approx. 3000–8000 cells per well in a volume of 100 μl of complete medium. Cells were grown for 24 hours in complete medium, and 1 μl of test compound was serially diluted in 100% DMSO and added to each well. For maximum growth control wells, only 1 μl of 100% DMSO was added. After 24 hours incubation, 20 μl of ^14C-thymidine master mix was added to each well and the ^14C-thymidine master mix was pepared according to the following regimen:
Cells were incubated for an additional 24 hours at 37° C. in medium containing test compound and ^14C-thymidine. Then, the reaction mixture was discarded and the plate was washed 2 times each with 200 μl PBS. Subsequently, each well on the plate was filled with 200 μl of PBS. The top of the plate was sealed with transparent plate sealer and white plate backing sealers were applied to the bottom of plates. The retained ^14C inside each well was measured using a Packard TopCount.
In order to test the potency of inhibition of the present compound, IC50 of an individual compound on the inhibition of tumor cell line proliferation was measured using the above procedure. As used herein, said IC50 refers to the concentration of the test compound at which the amount of tumor cell proliferation is reduced by one-half as compared to the maximum growth control wells without the compound.

Where [3] appears, read: PDGF-BB induced HCASMC proliferation.

As for `COC(=O)c1cccc(Nc2[nH]nc3c2Cc2cc(OC)c(OC)cc2-3)c1` [Compound 11, 3-(6,7-Dimethoxy-2,4-dihydro-indeno[1,2-c]pyrazol-3-ylamino)-benzoic acid methyl ester], the IC50 in assay [1] (setting [3]) was determined as 14 nM; in assay [2] it was 2 nM.

On to `COc1cc2c(cc1OC)-c1n[nH]c(Nc3ccccc3F)c1C2` [Compound 12, (6,7-Dimethoxy-2,4-dihydro-indeno[1,2-c]pyrazol-3-yl)-(2-fluoro-phenyl)-amine], for which the results for the IC50 in assay [1] (setting [3]) and in assay [2] were 106 nM and 11 nM, respectively.

On to `COc1cc2c(cc1OC)-c1n[nH]c(Nc3cccc(F)c3)c1C2` [Compound 14, (3-Fluoro-phenyl)-(6,7-dimethoxy-2,4-dihydro-indeno[1,2-c]pyrazol-3-yl)-amine], for which the IC50 is 3 nM in assay [1] and 11 nM in assay [2].

Take `Cc1ccc2c(c1)-c1n[nH]c(Nc3ccccc3)c1C2` [Compound 22, (7-Methyl-2,4-dihydro-indeno[1,2-c]pyrazol-3-yl)-phenyl-amine]: the IC50 in assay [1] (setting [3]) was 278 nM; in assay [2] it was 13400 nM.

Turning to `COc1cc2c(cc1OC)-c1n[nH]c(Nc3cccnc3)c1C2` [Compound 30, (6,7-Dimethoxy-2,4-dihydro-indeno[1,2-c]pyrazol-3-yl)-pyridin-3-yl-amine], the IC50 in assay [1] (setting [3]) turned out to be 2 nM; in assay [2], 423 nM.

For the compound `COc1ccc2c(c1)-c1n[nH]c(Nc3ccccc3)c1C2` [Compound 39, (7-Methoxy-2,4-dihydro-indeno[1,2-c]pyrazol-3-yl)-phenyl-amine], in assay [1] (setting [3]), the IC50 stood at 9 nM.

For the compound `COc1cc2c(cc1OC)-c1n[nH]c(NCc3ccccc3)c1C2` [Compound 63, Benzyl-(6,7-dimethoxy-2,4-dihydro-indeno[1,2-c]pyrazol-3-yl)-amine], the IC50 in assay [1] (setting [3]) worked out at 14 nM; in assay [2] it was 2400 nM.

Turning to `COc1cccc(Nc2[nH]nc3c2Cc2cc4c(cc2-3)OCO4)c1` [Compound 97, (2,9-Dihydro-5,7-dioxa-2,3-diaza-cyclopenta[a]-s-indacen-1-yl)-(3-methoxy-phenyl)-amine], the values for the IC50 in assay [1] (setting [3]) and in assay [2] were 19 nM and 225 nM, respectively.

Consider `CN1CCN(c2ccc3c(c2)Cc2c-3n[nH]c2Nc2cccc(Br)c2)CC1` [Compound 122, (3-Bromo-phenyl)-[6-(4-methyl-piperazin-1-yl)-2,4-dihydro-indeno[1,2-c]pyrazol-3-yl]-amine], for which the IC50 in assay [1] (setting [3]) came to 125 nM; in assay [2], 3840 nM.

`COC(=O)c1cccc(Nc2[nH]nc3c2Cc2cc(OCCCN4CCCC4)c(OC)cc2-3)c1` [Compound 157, 3-[7-Methoxy-6-(3-pyrrolidin-1-yl-propoxy)-2,4-dihydro-indeno[1,2-c]pyrazol-3-ylamino]-benzoic acid methyl ester]: the results for the IC50 in assay [1] (setting [3]) and in assay [2] were 8 nM and 2140 nM, respectively.

On to `COc1cc2c(cc1OC)-c1n[nH]c(NCc3cc(Cl)ccc3Cl)c1C2` [Compound 330, (2,5-Dichloro-benzyl)-(6,7-dimethoxy-2,4-dihydro-indeno[1,2-c]pyrazol-3-yl)-amine], for which the IC50 in assay [2] was 3700 nM.

Regarding `COc1cc2c(cc1OC)-c1c(c(Nc3cccc(F)c3)nn1C(=O)CO)C2` [Compound 432, 1-[3-(3-Fluoro-phenylamino)-6,7-dimethoxy-4H-indeno[1,2-c]pyrazol-1-yl]-2-hydroxy-ethanone], in assay [2], the IC50 came out at 35 nM.
